How the values were obtained:
CYP3A4 [1] = target: T1, CYP3A4 (Homo sapiens, UniProt P08684); assay: Time-dependent inhibition of CYP3A4 in pooled HLMs; format: in vitro ADME
T1 construct: Pooled HLMs were obtained from BD Bioscience (Woburn, USA); tissue BD Bioscience; host or cells: pooled human liver microsomes
Method: (§1) The time-dependent inhibition experiments were conducted at the incubation time of 0, 5, 10, 15, and 30 min at 37 °C with 20 μM obtusofolin. After the incubation, a total of 20 μL aliquot was transferred to another tube with the NADPH-generating system and probe substrates and incubation for a specific time. The reactions were terminated by the addition of acetonitrile and placed on ice for further analysis.
The time-dependent characteristic was estimated by the values of KI and Kinact obtained from further experiments. The incubation was performed with 0, 2, 5, 10, 20, and 50 μM obtusofolin and a higher concentration of substrates (approximately 4-fold to Km) for 0, 5, 10, 15, and 30 min. The incubation scheme was performed as described above. The fitting equation to obtain the value of KI and Kinact was: 1/Kobs=KI/Kinact∗1/I+1/Kinact
where Kobs is the pseudo-first-order rate constant of inactivation at inactivated concentration [I], Kinact is the maximum inactivation rate (a theoretical value that cannot be experimentally observed), and KI is the inactivated concentration when the rate of inactivation reaches half of Kinact.

CYP3A4 [2] = target: T1, CYP3A4; assay: CYP3A4 inhibition in pooled human liver microsomes (testosterone 6β-hydroxylation); format: in vitro ADME
Method: (§2) The investigation was conducted in pool human liver microsomes in vitro. Except for the HLMs treated with 100 μM obtusofolin, specific inhibitors, and negative control HLMs were also employed.
(§3) The incubation volume was 200 μL containing potassium phosphate buffer (pH 7.4), an NADPH-generating system composed of NADP^+, glucose-6-phosphate, glucose-6-phosphate dehydrogenase, and MgCl2, probe substrates, HLMs, and obtusofolin or positive inhibitors. The experiments for each CYP isoforms were performed in triplicate and the obtained results were represented as mean value ± SD.
(§4) The reactions were initiated by adding the NADPH-generating system after a 3-min preincubation at 37 °C. The reactions were terminated by adding 100 μL acetonitrile or 10% (v:v) trichloroacetic. The mixture was placed on ice and centrifuged at 12,000 rpm for 10 min. A total of 20 μL supernatant was obtained for the analysis of metabolites by HPLC.
(§5) Firstly, 100 μM obtusofolin was incubated with the above incubation system in HLMs to evaluate its effect on the activity of CYP450s. Then the dose-dependent experiments were performed to obtain corresponding parameters in the presence of 0, 2.5, 5, 10, 25, 50, and 100 μM obtusofolin. The concentrations of probe substrates were 20–100 μM testosterone for CYP3A4, 5–20 μM diclofenac for CYP2C9, and 25–250 μM chlorzoxazone for CYP2E1.
(§6) The enzyme kinetic parameters were obtained by the least-squares linear regression. The inhibition data were fitted with non-linear regression according to the following equation: V=VmaxS/Km1+I/Ki+Sfor competitive inhibitionCYP2C9 and 2E1; V=VmaxS/Km+S1+I/Kifor non−competitive inhibitionCYP3A4.
(§7) where I is the concentration of the compound, Ki is the inhibition constant, S is the concentration of the substrate and Km is the substrate concentration at half the maximum velocity (Vmax) of the reaction. The mechanism of the inhibition was inspected using the Lineweaver–Burk plots and the enzyme inhibition models. The data comparison was performed using the Student’s t-test and performed using IBM SPSS statistics 20 (SPSS Inc., Chicago, IL, USA).

[3] = set-up: method as in PMID 33119923; conditions: rats, 1.3 mg/kg obtusofolin; cited from earlier work
CYP2E1 [4] = target: T2, CYP2E1 (Homo sapiens, UniProt P05181); assay: Time-dependent inhibition of CYP2E1 in pooled HLMs; format: in vitro ADME; conditions: 20 μM obtusofolin, 5 to 30 min
T2 construct: Pooled HLMs were obtained from BD Bioscience (Woburn, USA); tissue BD Bioscience; host or cells: pooled human liver microsomes
T2 sequence (P05181 whole entry): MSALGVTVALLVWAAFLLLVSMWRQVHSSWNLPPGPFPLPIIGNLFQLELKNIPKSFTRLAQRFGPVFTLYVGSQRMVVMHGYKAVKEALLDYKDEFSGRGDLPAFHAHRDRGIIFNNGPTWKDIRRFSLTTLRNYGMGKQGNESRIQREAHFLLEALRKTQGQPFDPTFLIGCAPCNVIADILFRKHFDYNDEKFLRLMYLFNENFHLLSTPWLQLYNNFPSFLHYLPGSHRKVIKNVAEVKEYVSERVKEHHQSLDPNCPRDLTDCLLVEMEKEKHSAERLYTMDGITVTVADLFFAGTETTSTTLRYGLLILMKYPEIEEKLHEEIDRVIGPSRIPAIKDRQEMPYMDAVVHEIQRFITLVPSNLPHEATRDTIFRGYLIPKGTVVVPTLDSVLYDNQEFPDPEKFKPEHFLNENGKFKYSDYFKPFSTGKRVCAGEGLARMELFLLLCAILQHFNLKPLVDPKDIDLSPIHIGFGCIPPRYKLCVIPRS
Method: as §1

CYP2E1 [5] = target: T2, CYP2E1; assay: CYP2E1 inhibition in pooled human liver microsomes (chlorzoxazone 6-hydroxylation); format: in vitro ADME
Method: as §2, §3, §4, §5, §6, §7

CYP2C9 [6] = target: T3, CYP2C9 (Homo sapiens, UniProt P11712); assay: CYP2C9 inhibition in pooled human liver microsomes (diclofenac 4′-hydroxylation); format: in vitro ADME
T3 construct: Pooled HLMs were obtained from BD Bioscience (Woburn, USA); tissue BD Bioscience; host or cells: pooled human liver microsomes
T3 sequence (P11712 whole entry): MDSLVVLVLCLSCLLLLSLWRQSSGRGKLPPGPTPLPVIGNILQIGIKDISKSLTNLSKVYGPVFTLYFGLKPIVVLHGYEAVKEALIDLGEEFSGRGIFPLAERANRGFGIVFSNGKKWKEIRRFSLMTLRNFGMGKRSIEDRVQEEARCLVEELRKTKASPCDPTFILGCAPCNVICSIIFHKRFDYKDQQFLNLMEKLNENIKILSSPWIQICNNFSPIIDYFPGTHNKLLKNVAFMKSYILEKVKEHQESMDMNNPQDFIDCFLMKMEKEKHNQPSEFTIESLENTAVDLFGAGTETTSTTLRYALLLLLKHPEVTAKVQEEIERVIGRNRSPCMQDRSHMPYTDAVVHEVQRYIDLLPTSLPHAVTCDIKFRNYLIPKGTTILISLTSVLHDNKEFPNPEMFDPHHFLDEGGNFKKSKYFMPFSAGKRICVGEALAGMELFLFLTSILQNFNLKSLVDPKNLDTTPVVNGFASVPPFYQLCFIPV
Method: as §2, §3, §4, §5, §6, §7

CYP2C9 [7] = target: T3, CYP2C9; assay: Time-dependent inhibition of CYP2C9 in pooled HLMs; format: in vitro ADME; conditions: 20 μM obtusofolin, 5 to 30 min
Method: as §1

[8] = 100 μM obtusofolin, pooled HLMs, P < 0.05 vs negative control
[9] = Lineweaver–Burk plots, best fit
[10] = pooled HLMs, 0, 2.5, 5, 10, 25, 50, 100 μM obtusofolin, mean ± SD, triplicate

T1 sequence (P08684 whole entry): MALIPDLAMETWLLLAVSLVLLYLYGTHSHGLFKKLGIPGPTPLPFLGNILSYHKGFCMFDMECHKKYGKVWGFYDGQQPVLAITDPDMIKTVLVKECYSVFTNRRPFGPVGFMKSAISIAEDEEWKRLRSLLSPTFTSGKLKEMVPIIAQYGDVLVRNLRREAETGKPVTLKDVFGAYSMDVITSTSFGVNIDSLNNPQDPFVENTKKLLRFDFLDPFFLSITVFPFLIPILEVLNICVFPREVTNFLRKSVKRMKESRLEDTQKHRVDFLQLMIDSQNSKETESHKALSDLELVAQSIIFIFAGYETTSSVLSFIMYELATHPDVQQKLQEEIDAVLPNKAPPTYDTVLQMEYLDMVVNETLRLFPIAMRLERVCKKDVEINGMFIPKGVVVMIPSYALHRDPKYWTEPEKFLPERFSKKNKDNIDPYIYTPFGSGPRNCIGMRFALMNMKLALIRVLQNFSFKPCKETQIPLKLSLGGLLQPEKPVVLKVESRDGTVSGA

inhibitory effect on CYP3A4 versus incubation time (CYP3A4 [1]; 20 μM obtusofolin, 5 to 30 min): increased with the incubation time
kinact (CYP3A4 [1]; human, pooled human liver microsomes, 0, 2, 5, 10, 20, 50 μM obtusofolin, 0-30 min, substrate approx. 4-fold Km): 0.000858 s⁻¹
CYP3A4 inactivated per minute (CYP3A4 [1]; saturating concentration of obtusofolin): approximately 5.15%
activity of CYP3A4 (CYP3A4 [2]; [8]): significantly suppressed
inhibition model of CYP3A4 (CYP3A4 [2]; [9]): non-competitive
Ki (CYP3A4 [2]; non-competitive model, 20–100 μM testosterone, pooled HLMs): 8.82 µM
IC50 (CYP3A4 [2]; [10]): 17.1 ± 0.25 µM
inhibitory effect on CYP2E1 versus incubation time (CYP2E1 [4]): not affected
activity of CYP2E1 (CYP2E1 [5]; [8]): significantly suppressed
inhibition model of CYP2E1 (CYP2E1 [5]; [9]): competitive
Ki (CYP2E1 [5]; competitive model, 25–250 μM chlorzoxazone, pooled HLMs): 7.79 µM
IC50 (CYP2E1 [5]; [10]): 15.5 ± 0.16 µM
activity of CYP2C9 (CYP2C9 [6]; [8]): significantly suppressed
inhibition model of CYP2C9 (CYP2C9 [6]; [9]): competitive
Ki (CYP2C9 [6]; competitive model, 5–20 μM diclofenac, pooled HLMs): 5.54 µM
IC50 (CYP2C9 [6]; [10]): 10.8 ± 0.13 µM
inhibitory effect on CYP2C9 versus incubation time (CYP2C9 [7]): not affected
Structure (SMILES): COc1c(O)c(C)cc2c1C(=O)c1c(O)cccc1C2=O [obtusofolin]
maximum (plasma concentration) [3]: 152.5 ± 62.3 ng/mL

From paper PMC8411522, “In vitro inhibitory effect of obtusofolin on the activity of CYP3A4, 2C9, and 2E1” (BMC Complementary Medicine and Therapies, 2021)
